According to US10441663B2, “Methods for treating cancer” (Bicycle Therapeutics Limited, priority 2016, dated 2019):
*1 amine or outer side, *2 acyl side, *3 side chain or, on linkers, in order; H or OH if unused. Where a SMILES comes first, the peptide text is derived from it. Bridges are numbered along the chain shown (N, C = ends). [ ]: non-standard residue; d: D form. The star is where a group is joined. X1 = COc1cc2cc(c1Cl)N(C)C(=O)C[C@H](OC(=O)[C@H](C)N(C)C(=O)CCSSC(C)CCC(=O)*)[C@]1(C)O[C@H]1[C@H](C)[C@@H]1C[C@@](O)(NC(=O)O1)[C@H](OC)/C=C/C=C(\C)C2; 1Nal = N[C@@H](Cc1cccc2ccccc12)C(=O)O; TBMB = c1c(C[*:1])cc(C[*:3])cc1C[*:2]; Tle = CC(C)(C)[C@H](N)C(=O)O; βAla = NCCC(=O)O; Sar = CNCC(=O)O

Tested on: LU-01-0251 non-small-cell lung carcinoma (NSCLC) PDX model
Assay: Efficacy in LU-01-0251 NSCLC PDX model (high MT1-expressing, docetaxel sensitive)
Assay type: in vivo, Balb/C nude mice
Excerpt: The objective of the project is to evaluate the in vivo therapeutic efficacy of test articles in the LU-01-0251 non-small-cell lung carcinoma (NSCLC) PDX model. LU-01-0251 is a high MT1-expressing NSCLC that is docetaxel sensitive.
Each mouse was inoculated subcutaneously at the right flank with certain kind of tumor fragment (30 mm3) for tumor development. The treatments started when the average tumor volume reaches approximately 150-200 mm^3. The test article administration and the animal numbers in each group are shown in Table 40 which details the experimental design.
Treatment was given until the control tumors reached an average of 1000 mm^3.
Before commencement of treatment all animals will be weighed and the tumor volumes will be measured. Since the tumor volume can affect the effectiveness of any given treatment, mice will be assigned into groups using randomized block design based upon their tumor volumes.
The protocol and any amendment(s) or procedures involving the care and use of animals in this study will be reviewed and approved prior to conduct. […] At the time of routine monitoring, the animals will be checked for any effects of tumor growth and treatments on normal behavior such as mobility, food and water consumption, body weight gain/loss (body weights will be measured twice weekly), eye/hair matting and any other abnormal effect. Death and observed clinical signs will be recorded on the basis of the numbers of animals within each subset.
The major endpoint is to see if the tumor growth can be delayed or mice can be cured. Tumor sizes will be measured twice weekly in two dimensions using a caliper and the volume will be expressed in mm^3 using the formula: V=0.5 a×b^2 where a and b are the long and short diameters of the tumor, respectively. […] T-C is calculated with T as the median time (in days) required for the treatment group tumors to reach a predetermined size (e.g., 1.000 mm^3), and C is the median time (in days) for the control group tumors to reach the same size. […]
TGI is calculated for each group using the formula. […]

COc1cc2cc(c1Cl)N(C)C(=O)C[C@H](OC(=O)[C@H](C)N(C)C(=O)CCSSC(C)CCC(=O)NCCC(=O)N(C)CC(=O)N(C)CC(=O)N(C)CC(=O)N(C)CC(=O)N(C)CC(=O)N(C)CC(=O)N(C)CC(=O)N(C)CC(=O)N(C)CC(=O)N(C)CC(=O)N[C@@H](C)C(=O)N[C@H]1CSCc3cc4cc(c3)CSC[C@H](NC(=O)[C@@H](C)NC(=O)[C@H](Cc3cccc5ccccc35)NC(=O)[C@H](CCC(=O)O)NC(=O)[C@H](CC(N)=O)NC(=O)[C@@H](C)NC1=O)C(=O)N[C@@H](CCC(=O)O)C(=O)N[C@@H](CC(=O)O)C(=O)N[C@@H](Cc1ccccc1)C(=O)N[C@@H](Cc1ccc(O)cc1)C(=O)N[C@@H](CC(=O)O)C(=O)N[C@@H](C(C)(C)C)C(=O)N[C@H](C(N)=O)CSC4)[C@]1(C)O[C@H]1[C@H](C)[C@@H]1C[C@@](O)(NC(=O)O1)[C@H](OC)/C=C/C=C(\C)C2 (stereo partly drawn) [BT1718] ({X1-βAla}-[Sar][Sar][Sar][Sar][Sar][Sar][Sar][Sar][Sar][Sar]AC[dA]NE[1Nal][dA]CEDFYD[Tle]C-NH2; linker 12-18-25 via TBMB (inferred))
tumor response (3 mg/kg biw): tumor stasis
relapse after cessation of dosing (10 mg/kg biw): lack of relapse
tumor response (10 mg/kg biw): tumor eradication
